Reference: patent publication US20240293367A1, “METHODS OF TREATING DISORDERS WITH A […]” (Cybin IRL Limited, priority 2023, published 2024)
Values joined by “and” are separate entries in the source; they are usually repeats but may differ in a detail not shown here. Equal values may be shown once. Read-outs that look alike come from different tables or passages of the source.

Assays:
[1] = Safety and tolerability (adverse events) in the Phase I/IIa study
[2] = VAS ratings of 'Any drug effect' in the Phase I/IIa study; type: in vivo, human
Text: The visual analogue scale (VAS) is a psychometric response scale that can be used in questionnaires. It is a measurement instrument for subjective characteristics or attitudes that cannot be directly measured. When responding to a VAS item, respondents specify their level of agreement to a statement by indicating a position along a continuous line between two end points, usually a horizontal 100-mm line marked from “not at all,” “definitely not,” or the like, on the left to “extremely,” “definitely so,” or the like, on the right. The Bond and Lader VAS involves the subject indicating (with vertical marks) on sixteen horizontal 100-mm visual analogue scales how he/she feels. From these measurements, three main factors are calculated as described by Bond and Lader: alertness (from nine scores), contentedness (often called mood; from five scores), and calmness (from two scores). The Bowdle VAS and Drug Rating VAS provides the subject with items of the drug rating questionnaire: feel drug, like drug, and dislike drug. The VAS any drug effect involves the subject indicating (with vertical marks) on horizontal 100-mm visual analogue scales with the any drug effects item (“I can feel any drug effect”). In some embodiments, the subject has a maximum VAS score (e.g., Bond and Lader VAS, Bowdle VAS and Drug Rating VAS, and/or VAS any drug effect) of ≥60 mm after treatment. In some embodiments, the subject has a VAS score (e.g., Bond and Lader VAS, Bowdle VAS and Drug Rating VAS, and/or VAS any drug effect) of greater than or equal to 60 mm, 65 mm, 70 mm, 75 mm, 80 mm, 85 mm, 90 mm, or 95 mm, after treatment. In some embodiments, at least 50%, at least 55%, at least 60%, at least 65%, at least 70%, at least 75%, at least 80%, at least 85%, at least 90% of subjects treated with the methods described herein report a maximum VAS score (e.g., Bond and Lader VAS, Bowdle VAS and Drug Rating VAS, and/or VAS any drug effect) of greater than or equal to 60 mm, 65 mm, 70 mm, 75 mm, 80 mm, 85 mm, 90 mm, or 95 mm following treatment. In some embodiments, the subject has a maximum VAS any drug effect score of ≥60 mm after treatment. In some embodiments, the subject has a VAS any drug effect score of greater than or equal to 60 mm, 65 mm, 70 mm, 75 mm, 80 mm, 85 mm, 90 mm, or 95 mm, after treatment. In some embodiments, at least 50%, at least 55%, at least 60%, at least 65%, at least 70%, at least 75%, at least 80% of subjects treated with the methods described herein report a maximum VAS any drug effect score of greater than or equal to 60 mm, 65 mm, 70 mm, 75 mm, 80 mm, 85 mm, 90 mm, or 95 mm following treatment.
A visual analogue scale will be completed by all participants on each day of dosing (Day 1 and Day 8 or Day 22) and will consist of a 100 mm bipolar line with the far left side of the line marked not at all, and the far right side of the line marked extremely. Participants will be asked “Right now, do you feel any drug effects at all?” and participants in response will make a vertical mark on the line on study dosing days predose and at 0.5, 1, 2, 4, 6, 8 and 12 hours postdose.

[3] = not given; remark: listed apart in the source
[4] = female, rat, in vivo, 40 mg/kg
[5] = all cohorts, psilocin-d10 n = 35
[6] = oral, equivalent doses, male Beagle dogs

## [2H]C([2H])([2H])N(C([2H])([2H])[2H])C([2H])([2H])C([2H])([2H])c1c[nH]c2cccc(O)c12 [psilocin-d10, 3-(2-(bis(methyl-d3)amino)ethyl-1,1,2,2-d4)-1H-indol-4-ol]
Sprague Dawley, rat, in vivo, po
  bioavailability: ~60%
oral, Sprague Dawley rats, molar dose-normalised
  reduction in oral concentration (Cmax) in comparison to psilocin after psilocybin: 16%
rats
  difference in systemic exposure versus psilocin: ~30%
[1]; 8 mg
  nausea at least possibly related to study treatment: 2 out of 4
[1]; 12 mg
  nausea at least possibly related to study treatment: 6 out of 24
[1]; 16 mg
  nausea at least possibly related to study treatment: 3 out of 12
[1]; Cohort 3
  headache at least possibly related to study treatment: 1 subject
[1]; Cohort 4
  headache at least possibly related to study treatment: 1 subject
  vomiting at least possibly related to study treatment: 1 subject
[1]; Cohort 6
  vomiting at least possibly related to study treatment: 3 subjects
[1]; all cohorts
  discontinuation due to AEs: No participants discontinued due to AEs
[1]; all cohorts incl. healthy volunteers, psilocin-d10 n = 35
  Drug-related, treatment-emergent adverse events: At least one AE: 21 (60.0) n (%)
[1]; [5]
  Drug-related TEAE: Affect lability: 1 (2.9) n (%)
  Drug-related TEAE: Anxiety: 2 (5.7) n (%)
  Drug-related TEAE: Blood pressure increased: 5 (14.3) n (%)
  Drug-related TEAE: Confusional state: 1 (2.9) n (%)
  Drug-related TEAE: Dizziness: 1 (2.9) n (%)
  Drug-related TEAE: Eructation: 1 (2.9) n (%)
  Drug-related TEAE: Headache: 3 (8.6) n (%)
  Drug-related TEAE: Nasal congestion: 1 (2.9) n (%)
  Drug-related TEAE: Nausea: 6 (17.1) n (%)
  Drug-related TEAE: Panic Attack: 1 (2.9) n (%)
  Drug-related TEAE: Tachycardia: 1 (2.9) n (%)
  Drug-related TEAE: Vomiting: 2 (5.7) n (%)
[1]; dosage levels up to 16 mg, 8 healthy volunteers and 38 participants with MDD
  tolerability: well tolerated without significant adverse effects
[2]; 8 mg oral, Cohort 2, 4 healthy volunteers
  subjects reporting maximum VAS-Any drug effect readings above 60 mm: 75%
[2]; 8 mg oral, Cohort 2 Day 8, NHV, N = 4
  Observed Mean Maximum VAS - Any drug effect: 77.2
[2]; 8 mg, Cohort 2
  individual VAS-Any drug effect scores of subjects with meaningful scores: 100 mm and 97 mm and 89 mm
[2]; 10 mg oral, Cohort 3, 3 healthy volunteers
  subjects reporting maximum VAS-Any drug effect readings above 60 mm: 66%
[2]; 10 mg oral, Cohort 3 Day 8, NHV, N = 3
  Observed Mean Maximum VAS - Any drug effect: 78.3
[2]; 10 mg, Cohort 3
  individual VAS-Any drug effect scores of subjects with meaningful scores: 100 mm
[2]; 12 mg oral, Cohorts 4 and 5 MDD, Day 1 or Day 22, blinded data incl. placebo subjects
  Observed Mean Maximum VAS - Any drug effect: 80.7 and 80.7^3
[2]; 12 mg, Cohorts 4 and 5 MDD
  median maximum VAS-Any drug effect score: 100 mm
[2]; 16 mg oral, Cohort 6 MDD, Day 1 or Day 22, blinded data incl. placebo subjects, excluding vomited doses
  Observed Mean Maximum VAS - Any drug effect: 89.2 and 89.2^2,3
[2]; 16 mg, Cohort 6 MDD
  median maximum VAS-Any drug effect score: 100 mm
  subjects reporting maximum VAS-Any drug effect readings above 60 mm: 79.2%
[3]; dogs
  difference in systemic exposure versus psilocin: ~30%
[3]; [6]
  higher concentration (Cmax) compared to psilocin after psilocybin: 31%
  higher exposure (AUC) compared to psilocin after psilocybin: 38%
[3]; oral, female dogs
  oral availability: 91.3%
[4]
  AUC(0-t): 3630 ng·h/mL
  Cmax: 343 ng/mL
